# What was measured:
# F-AS = assay: Binding to A-site rRNA template; conditions: specific assay conditions; compared with compound 4 for F-AS
# [1] = tested on: Serratia marcescens ATCC 13880; assay: MIC, microdilution broth, S. marcescens; type: cell-based
# Description: (§1) Escherichia coli JM83 is an antibiotic-sensitive laboratory strain. E. coli JM83 (APH(3′)-I) contains high copies (500–700 copies per cell) of plasmid pUC19 with the cloned kanamycin resistance gene from transposon Tn903 that produces the type I aminoglycoside 3′-phosphotransferase. APH(3′)-I is the most common aminoglycoside phosphotransferase in gram-negative bacteria. E. coli JM83 (AAC6′/APH2″) contains a plasmid with the gene for the bifunctional aminoglycoside-modifying enzyme AAC(6′)/APH(2″), which is produced by many cocci. The enzyme is able to phosphorylate at the 2″ position and/or acetylate at the 6′ position of various aminoglycoside antibiotics to manifest resistance for the organisms that express it. Serratia marcescens ATCC 13880, Enterobacter cloacae ATCC 3047, Pseudomonas aeruginosa 66 and C43 are representative important gram-negative pathogens. Aminoglycosides by themselves or in combination with other antibiotics are often used to combat these microorganisms, especially P. aeruginosa that is often very difficult to treat. Staphylococcus aureus 3 and Enterococcus faecium 119 are representatives of the cocci. Most of these microorganisms are intrinsically resistant to aminoglycosides (poor permeability), but in combination with β-lactam antibiotics are often used to treat infections caused by these microorganisms.
# (§2) The MICs of all antibiotics, including the compounds of the present invention (i.e., the compounds of formula (I)), were determined by microdilution method broth procedure. Sequential twofold dilutions of antibiotics were performed in 100 μL of Luria-Bertani (LB) broth in sterile 96-well microtiter plates. Overnight cultures of bacteria were diluted 100 times in LB broth and subgrown for several hours and 10 μL of diluted cultures were transferred into the antibiotic containing microtiter plates to bring final inoculums to 10^5 CFU/mL (CFU stands for the colony forming units). Cultures were incubated overnight at 35° C. and microtiter plates were checked from below with a reflective viewer.
# [2] = tested on: Pseudomonas aeruginosa 66 and C43; assay: MIC, microdilution broth, P. aeruginosa; type: cell-based
# Description: as §1, §2
# [3] = tested on: Enterobacter cloacae ATCC 3047; assay: MIC, microdilution broth, E. cloacae; type: cell-based
# Description: as §1, §2
# [4] = tested on: E. coli JM83 (AAC6′/APH2″); assay: MIC, microdilution broth, E. coli hyper-expressing AAC(6′)/APH(2″); type: cell-based, Escherichia coli; conditions: for antibiotic activity: E. coli hyper-expressing AAC(6′)/APH(2″)
# Description: as §1, §2
# E. coli JM83 (APH(3′)-I) = assay: MIC, microdilution broth, E. coli hyper-expressing APH(3′)-I; type: cell-based, Escherichia coli; conditions: for antibiotic activity / fold lower activity than tobramycin and amikacin: E. coli hyper-expressing APH(3′)-I
# Description: as §1, §2
# Staphylococcus aureus 3 = assay: MIC, microdilution broth, S. aureus; type: cell-based; conditions: S. aureus 3
# Description: as §1, §2
# Enterococcus faecium 119 = assay: MIC, microdilution broth, E. faecium; type: cell-based; conditions: E. faecium 119, moderately resistant to aminoglycosides
# Description: as §1, with “Most of these microorganisms are intrinsically resistant to aminoglycosides (poor permeability), but in combination with β-lactam antibiotics are often used to treat infections caused by these microorganisms.” left out
# (§3) The MICs of all antibiotics, including the compounds of the present invention (i.e., the compounds of formula (I)), were determined by microdilution method broth procedure. […]
# [5] = tested on: any of the microorganisms tested; assay: MIC, microdilution broth, whole panel of bacterial strains; type: cell-based; conditions: whole spectrum of strains
# Description: as §1, with “Most of these microorganisms are intrinsically resistant to aminoglycosides (poor permeability), but in combination with β-lactam antibiotics are often used to treat infections caused by these microorganisms.” left out
# as §3
# Escherichia coli JM83 = assay: MIC, microdilution broth, E. coli JM83; type: cell-based; conditions: E. coli JM83, antibiotic-sensitive laboratory strain
# Description: as §1, with “Most of these microorganisms are intrinsically resistant to aminoglycosides (poor permeability), but in combination with β-lactam antibiotics are often used to treat infections caused by these microorganisms.” left out
# as §3
compound,measurement,setting,value
"NCCCCNCCOC1C(NC(=O)Cc2ccc(N)cc2)CC(N)C(O[C@H]2O[C@H](CN)[C@@H](O)[C@H](O)[C@H]2N)C1O (stereo partly shown) [Compound 8, 1-N-[4-Aminophenylethanoyl]-6-O-[2-N-(4-butylamino)ethylamino]neamine]",binding to RNA,F-AS,do bind to the RNA
"NCCCN(CCOC1C(NC(=O)[C@@H](O)CCN)CC(N)C(O[C@H]2O[C@H](CN)[C@@H](O)[C@H](O)[C@H]2N)C1O)C(=O)[C@@H](O)CCN (stereo partly drawn) [Compound 7, 1-N,6-O-(2-N)-Bis[(S)-4-amino-2-hydroxybutanoyl]-6-O-[2-N-(3-propylamino)ethylamino]neamine]",antibiotic activity,[1],moderate activity
same,antibiotic activity,[2],moderate activity
same,antibiotic activity,[3],moderate activity
same,antibiotic activity,[4],moderate activity
same,MIC,[4]; E. coli strain producing AAC(6′)/APH(2″),32 µg/mL
same,antibiotic activity,E. coli JM83 (APH(3′)-I),moderate activity
same,MIC,E. coli JM83 (APH(3′)-I); E. coli strain producing APH(3′)-I,64 µg/mL
"NCCCNCCOC1C(NC(=O)[C@@H](O)CCN)CC(N)C(O[C@H]2O[C@H](CN)[C@@H](O)[C@H](O)[C@H]2N)C1O (stereo partly drawn) [Compound 4, 1-N-[(S)-4-Amino-2-hydroxybutanoyl]-6-O-[2-N-(3-propylamino)ethylamino]neamine]",antibiotic activity,[1],excellent activities
same,antibiotic activity,Staphylococcus aureus 3,good activities
same,antibiotic activity,[2],excellent activities
same,antibiotic activity,[3],excellent activities
same,antibiotic activity,Enterococcus faecium 119,good activities
same,antibiotic activity,[4],good activity
same,antibiotic activity,E. coli JM83 (APH(3′)-I),good activity
same,fold lower activity than tobramycin and amikacin,E. coli JM83 (APH(3′)-I),8 fold
"NCCNCCOC1C(NC(=O)[C@@H](O)CCN)CC(N)C(O[C@H]2O[C@H](CN)[C@@H](O)[C@H](O)[C@H]2N)C1O (stereo partly drawn) [Compound 3, 1-N-[(S)-4-Amino-2-hydroxybutanoyl]-6-O-[2-N-(2-ethylamino)ethylamino]neamine]",MIC values relative to compounds 4 and 5,[5],approximately four-fold higher
"NCCCCNCCOC1C(NC(=O)[C@@H](O)CCN)CC(N)C(O[C@H]2O[C@H](CN)[C@@H](O)[C@H](O)[C@H]2N)C1O (stereo partly drawn) [Compound 5, 1-N-[(S)-4-Amino-2-hydroxybutanoyl]-6-O-[2-N-(4-butylamino)ethylamino]neamine]",antibiotic activity,[1],excellent activities
same,antibiotic activity,Staphylococcus aureus 3,good activities
same,binding to RNA,F-AS,comparable binding affinity
same,antibiotic activity,[2],excellent activities
same,antibiotic activity,[3],excellent activities
same,antibiotic activity,Enterococcus faecium 119,good activities
same,antibiotic activity,[4],good activity
same,antibiotic activity,E. coli JM83 (APH(3′)-I),good activity
same,fold lower activity than tobramycin and amikacin,E. coli JM83 (APH(3′)-I),8 fold
6-O-[2-N-(3-Propylamino)ethylamino]neamine [Compound 6],overall antibiotic activity,[5],lower activity than compound 3
same,antibiotic activity,[1],demonstrates activity
same,antibiotic activity,Staphylococcus aureus 3,demonstrates activity
same,antibiotic activity,[3],demonstrates activity
same,antibiotic activity,Escherichia coli JM83,demonstrates activity
same,antibiotic activity,[4],not active
same,antibiotic activity,E. coli JM83 (APH(3′)-I),not active
"NCCCCNCCOC1C(NC(=O)Cc2cccc(N)c2)CC(N)C(O[C@H]2O[C@H](CN)[C@@H](O)[C@H](O)[C@H]2N)C1O (stereo partly shown) [Compound 9, 1-N-[3-Aminophenylethanoyl]-6-O-[2-N-(4-butylamino)ethylamino]neamine]",binding to RNA,F-AS,do bind to the RNA

# Reference: patent publication US7220727B2, “Aminoglycosides as antibiotics” (priority 2000, dated 2007)
